The results in this text go back to ChEMBL document CHEMBL1914289, “Discovery of novel Cobactin-T based matrix metalloproteinase inhibitors via a ring closing metathesis strategy” (Bioorg Med Chem Lett, 2011).

By IC50 is commonly meant the concentration that gives 50% inhibition. For orientation: Cmax means the highest concentration seen after dosing. Usually half-life stands for the time needed for the level to fall by half in the phase considered. Higher therefore signals slow loss. Usually AUC stands for concentration integrated over time. What is called inhibition is the drop in the measured response relative to a control, in per cent. The term clearance denotes the rate of elimination divided by the concentration. Low values mean a low capacity for elimination, high ones a high capacity for elimination.

In one series the target is T1, Interstitial collagenase (Homo sapiens, UniProt P03956).
T1 sequence (P03956 whole entry): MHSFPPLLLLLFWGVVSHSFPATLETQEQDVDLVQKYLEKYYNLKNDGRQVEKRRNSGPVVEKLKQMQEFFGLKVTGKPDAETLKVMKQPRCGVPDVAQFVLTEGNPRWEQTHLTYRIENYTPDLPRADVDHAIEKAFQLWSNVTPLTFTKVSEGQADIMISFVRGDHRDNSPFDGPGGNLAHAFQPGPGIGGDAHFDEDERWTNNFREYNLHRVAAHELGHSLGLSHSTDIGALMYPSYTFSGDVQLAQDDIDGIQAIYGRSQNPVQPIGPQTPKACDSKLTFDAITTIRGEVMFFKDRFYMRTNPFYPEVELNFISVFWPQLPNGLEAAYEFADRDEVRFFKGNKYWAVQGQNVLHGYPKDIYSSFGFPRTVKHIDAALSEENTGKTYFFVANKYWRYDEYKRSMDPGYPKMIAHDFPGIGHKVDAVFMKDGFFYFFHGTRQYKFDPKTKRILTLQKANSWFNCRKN
The series can be described thus: Inhibition of human MMP1 catalytic domain (amino acids 100 to 262) using acetyl-Cys(Eu)-Pro-Leu-Gly-Leu-Lys-(QSY7)-Ala-Arg-amide as substrate preincubated for 1 hrs before substrate addition measured after 15 mins by fluorimetry.

Series [1] is filed under the species Homo sapiens. The series can be described thus: Selectivity ratio of IC50 for human MMP3 catalytic domain (amino acids 100 to 265) to IC50 for human MMP9 catalytic domain (amino acids 107 to 446).
The species named for series [2] is Homo sapiens. The series can be described thus: Selectivity ratio of IC50 for human MMP3 catalytic domain (amino acids 100 to 265) to IC50 for full length human MMP2 (amino acids 1 to 660).
The next series addresses Collagenase 3 (Homo sapiens, UniProt P45452). The series can be described thus: Inhibition of human MMP13 catalytic domain (amino acids 103 to 268) using acetyl-Cys(Eu)-Pro-Leu-Gly-Leu-Lys-(QSY7)-Ala-Arg-amide as substrate preincubated for 1 hrs before substrate addition measured after 15 mins by fluorimetry.
For a further series, the target named is Stromelysin-1 (Homo sapiens, UniProt P08254). In words: Inhibition of human MMP3 catalytic domain (amino acids 100 to 265) using acetyl-Cys(Eu)-Pro-Leu-Gly-Leu-Lys-(QSY7)-Ala-Arg-amide as substrate preincubated for 1 hrs before substrate addition measured after 15 mins by fluorimetry.
The target of series [3] is Matrix metalloproteinase-9 (Homo sapiens, UniProt P14780). In words: Inhibition of human MMP9 catalytic domain (amino acids 107 to 446) using acetyl-Cys(Eu)-Pro-Leu-Gly-Leu-Lys-(QSY7)-Ala-Arg-amide as substrate preincubated for 1 hrs before substrate addition measured after 15 mins by fluorimetry.
Series [4] deals with 72 kDa type IV collagenase (Homo sapiens, UniProt P08253). The series can be described thus: Inhibition of full length human MMP2 (amino acids 1 to 660) using acetyl-Cys(Eu)-Pro-Leu-Gly-Leu-Lys-(QSY7)-Ala-Arg-amide as substrate preincubated for 1 hrs before substrate addition measured after 15 mins by fluorimetry.
For series [5], the target named is MMP-2/MMP-9 (Homo sapiens) (UniProt P08253+P14780). The series can be described thus: Selectivity ratio of IC50 for full length human MMP2 (amino acids 1 to 660) to IC50 for human MMP9 catalytic domain (amino acids 107 to 446).
Series [6] can be described thus: Cmax in rat at 0.5 mg/kg, iv. Particulars: in vivo. The class given is ADME, organism-based. On the set-up: dose 0.5 mg/kg, route intravenous.
The nature of series [7]: Half life in rat at 0.5 mg/kg, iv. The class given is ADME, organism-based. On the set-up: dose 0.5 mg/kg, route intravenous. Particulars: in vivo.
A further series deals with Rattus norvegicus. In words: (§1) AUC in rat at 0.5 mg/kg, iv. The class given is ADME, organism-based, Plasma. On the set-up: dose 0.5 mg/kg, route intravenous. The conditions noted are these: in vivo.
The next series has as its target CYP3A4 (Homo sapiens, UniProt P08684). The series can be described thus: Inhibition of CYP 3A4 at 1 uM. The series is classed as ADME.
In a further series the target is CYP2D6 (Homo sapiens, UniProt P10635). In words: Inhibition of CYP 2D6 at 1 uM. The class given is ADME.
For the next series, the system named is Salmonella typhimurium. In words: Induction of mutagenicity in Salmonella Typhimurium by AMES test. The series is classed as toxicity, organism-based. Particulars: salmonella enterica subsp. enterica serovar typhimurium.
Series [8] in a line: Half life in mouse at 10 mg/kg, po. The conditions noted are these: in vivo. On the set-up: dose 10 mg/kg, route oral. The class given is ADME, organism-based.
Series [9] can be described thus: Volume of distribution at steady state in rat at 0.5 mg/kg, iv. The series is classed as ADME, organism-based. Particulars: in vivo, read-out: Vdss. On the set-up: dose 0.5 mg/kg, route intravenous.
The nature of series [10]: Cmax in mouse at 10 mg/kg, po. On the set-up: dose 10 mg/kg, route oral. The class given is ADME, organism-based. The conditions noted are these: in vivo.
Series [11] addresses Voltage-gated inwardly rectifying potassium channel KCNH2 (Homo sapiens, UniProt Q12809). In words: Binding affinity to human Erg at 10 uM.
Series [12] is described as follows: as §1. The class given is ADME, organism-based, Plasma. Further details: dose 0.5 mg/kg, route intravenous. The conditions noted are these: plasma.
Series [13] in a line: Clearance in rat at 0.5 mg/kg, iv. The class given is ADME, organism-based. The conditions noted are these: in vivo. Further details: dose 0.5 mg/kg, route intravenous.

Matrix metalloproteinase-9, sequence (P14780 whole entry, the tested form may be a part): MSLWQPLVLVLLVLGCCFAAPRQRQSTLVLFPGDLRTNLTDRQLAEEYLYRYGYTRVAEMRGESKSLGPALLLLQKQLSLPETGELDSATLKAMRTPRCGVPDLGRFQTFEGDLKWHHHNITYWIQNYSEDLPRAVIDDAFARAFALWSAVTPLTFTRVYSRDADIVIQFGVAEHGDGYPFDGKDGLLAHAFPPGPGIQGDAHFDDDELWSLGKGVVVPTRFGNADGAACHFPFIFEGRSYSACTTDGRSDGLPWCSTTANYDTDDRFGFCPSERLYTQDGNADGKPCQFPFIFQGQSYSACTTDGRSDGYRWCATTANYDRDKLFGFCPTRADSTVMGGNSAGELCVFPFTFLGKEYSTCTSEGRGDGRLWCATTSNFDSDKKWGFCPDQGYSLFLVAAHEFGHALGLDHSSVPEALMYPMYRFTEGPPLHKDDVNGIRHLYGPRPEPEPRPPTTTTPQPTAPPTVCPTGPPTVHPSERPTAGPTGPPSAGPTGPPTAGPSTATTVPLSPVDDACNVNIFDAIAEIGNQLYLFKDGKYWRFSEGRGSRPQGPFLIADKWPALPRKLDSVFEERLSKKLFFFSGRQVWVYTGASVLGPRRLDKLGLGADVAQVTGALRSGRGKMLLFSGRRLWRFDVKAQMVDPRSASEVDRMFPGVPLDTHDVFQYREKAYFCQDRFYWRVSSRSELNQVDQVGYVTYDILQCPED
72 kDa type IV collagenase, sequence (P08253 whole entry, the tested form may be a part): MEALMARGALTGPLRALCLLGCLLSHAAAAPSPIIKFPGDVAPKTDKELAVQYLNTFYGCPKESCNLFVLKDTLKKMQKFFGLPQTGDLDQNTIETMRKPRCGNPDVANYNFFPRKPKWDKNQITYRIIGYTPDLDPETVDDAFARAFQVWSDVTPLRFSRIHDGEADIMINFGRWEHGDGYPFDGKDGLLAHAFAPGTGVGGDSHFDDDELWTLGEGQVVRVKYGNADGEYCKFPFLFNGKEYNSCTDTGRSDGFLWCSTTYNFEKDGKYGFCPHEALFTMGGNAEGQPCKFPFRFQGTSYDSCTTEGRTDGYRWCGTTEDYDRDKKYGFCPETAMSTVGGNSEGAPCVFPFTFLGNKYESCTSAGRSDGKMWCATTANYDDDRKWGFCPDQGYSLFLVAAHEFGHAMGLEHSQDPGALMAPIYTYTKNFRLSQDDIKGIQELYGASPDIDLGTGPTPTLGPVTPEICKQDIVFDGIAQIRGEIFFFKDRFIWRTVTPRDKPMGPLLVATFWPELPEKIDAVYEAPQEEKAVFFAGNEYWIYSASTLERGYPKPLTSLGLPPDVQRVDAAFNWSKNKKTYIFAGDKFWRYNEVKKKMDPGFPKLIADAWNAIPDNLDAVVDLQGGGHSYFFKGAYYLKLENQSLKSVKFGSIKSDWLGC
Stromelysin-1, sequence (P08254 whole entry, the tested form may be a part): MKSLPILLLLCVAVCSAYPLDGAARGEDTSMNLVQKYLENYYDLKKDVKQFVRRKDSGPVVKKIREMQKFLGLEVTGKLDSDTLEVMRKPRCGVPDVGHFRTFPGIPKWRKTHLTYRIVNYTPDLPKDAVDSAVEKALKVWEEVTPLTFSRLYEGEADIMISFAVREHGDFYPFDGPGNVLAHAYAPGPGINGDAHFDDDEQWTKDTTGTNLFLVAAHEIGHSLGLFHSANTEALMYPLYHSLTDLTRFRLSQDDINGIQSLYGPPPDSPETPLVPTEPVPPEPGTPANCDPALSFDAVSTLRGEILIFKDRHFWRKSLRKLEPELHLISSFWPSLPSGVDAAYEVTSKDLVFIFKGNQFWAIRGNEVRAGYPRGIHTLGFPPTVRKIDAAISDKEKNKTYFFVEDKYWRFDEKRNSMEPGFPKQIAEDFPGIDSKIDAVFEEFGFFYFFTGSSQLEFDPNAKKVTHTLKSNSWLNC
CYP2D6, sequence (P10635 whole entry): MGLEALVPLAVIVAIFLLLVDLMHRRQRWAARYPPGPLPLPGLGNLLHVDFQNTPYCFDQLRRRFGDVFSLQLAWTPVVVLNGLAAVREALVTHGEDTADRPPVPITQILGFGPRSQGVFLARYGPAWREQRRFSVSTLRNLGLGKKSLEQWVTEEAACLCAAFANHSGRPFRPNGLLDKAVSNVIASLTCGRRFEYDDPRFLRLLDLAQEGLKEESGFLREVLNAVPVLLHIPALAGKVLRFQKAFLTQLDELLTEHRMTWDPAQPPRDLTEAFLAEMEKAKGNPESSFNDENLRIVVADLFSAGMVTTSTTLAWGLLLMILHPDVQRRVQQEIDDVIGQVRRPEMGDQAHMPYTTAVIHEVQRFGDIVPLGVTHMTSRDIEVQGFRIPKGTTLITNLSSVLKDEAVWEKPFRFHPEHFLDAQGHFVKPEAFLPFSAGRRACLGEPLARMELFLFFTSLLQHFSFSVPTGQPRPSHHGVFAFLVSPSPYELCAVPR
Voltage-gated inwardly rectifying potassium channel KCNH2, sequence (Q12809 whole entry): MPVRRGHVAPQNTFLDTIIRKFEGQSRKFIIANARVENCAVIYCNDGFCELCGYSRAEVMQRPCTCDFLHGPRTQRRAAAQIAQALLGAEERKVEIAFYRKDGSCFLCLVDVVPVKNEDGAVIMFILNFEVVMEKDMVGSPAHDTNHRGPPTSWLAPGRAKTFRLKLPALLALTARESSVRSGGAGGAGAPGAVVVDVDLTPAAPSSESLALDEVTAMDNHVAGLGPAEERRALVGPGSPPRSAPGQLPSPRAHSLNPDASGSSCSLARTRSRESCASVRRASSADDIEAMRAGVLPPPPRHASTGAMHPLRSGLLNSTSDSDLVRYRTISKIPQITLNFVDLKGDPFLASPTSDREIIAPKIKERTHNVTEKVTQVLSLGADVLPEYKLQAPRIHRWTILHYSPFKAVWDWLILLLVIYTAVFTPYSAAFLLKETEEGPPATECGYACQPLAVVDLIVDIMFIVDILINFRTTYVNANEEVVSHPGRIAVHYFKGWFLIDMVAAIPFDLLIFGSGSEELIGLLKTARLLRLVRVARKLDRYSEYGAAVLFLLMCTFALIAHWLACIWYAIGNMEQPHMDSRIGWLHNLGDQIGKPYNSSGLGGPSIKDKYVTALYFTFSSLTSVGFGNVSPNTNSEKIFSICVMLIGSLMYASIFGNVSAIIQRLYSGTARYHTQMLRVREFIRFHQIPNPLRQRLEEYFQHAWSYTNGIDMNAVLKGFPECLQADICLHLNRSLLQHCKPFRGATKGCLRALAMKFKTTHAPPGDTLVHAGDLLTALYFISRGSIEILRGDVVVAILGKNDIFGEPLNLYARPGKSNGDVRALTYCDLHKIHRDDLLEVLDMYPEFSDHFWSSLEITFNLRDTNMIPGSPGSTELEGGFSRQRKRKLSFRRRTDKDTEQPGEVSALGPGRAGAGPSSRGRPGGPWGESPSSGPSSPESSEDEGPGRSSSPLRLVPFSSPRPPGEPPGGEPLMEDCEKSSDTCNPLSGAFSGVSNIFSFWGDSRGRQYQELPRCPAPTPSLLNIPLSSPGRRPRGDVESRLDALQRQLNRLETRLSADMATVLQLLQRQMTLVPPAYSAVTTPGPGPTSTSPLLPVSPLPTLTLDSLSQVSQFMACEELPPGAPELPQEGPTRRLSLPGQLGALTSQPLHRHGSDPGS
CYP3A4, sequence (P08684 whole entry): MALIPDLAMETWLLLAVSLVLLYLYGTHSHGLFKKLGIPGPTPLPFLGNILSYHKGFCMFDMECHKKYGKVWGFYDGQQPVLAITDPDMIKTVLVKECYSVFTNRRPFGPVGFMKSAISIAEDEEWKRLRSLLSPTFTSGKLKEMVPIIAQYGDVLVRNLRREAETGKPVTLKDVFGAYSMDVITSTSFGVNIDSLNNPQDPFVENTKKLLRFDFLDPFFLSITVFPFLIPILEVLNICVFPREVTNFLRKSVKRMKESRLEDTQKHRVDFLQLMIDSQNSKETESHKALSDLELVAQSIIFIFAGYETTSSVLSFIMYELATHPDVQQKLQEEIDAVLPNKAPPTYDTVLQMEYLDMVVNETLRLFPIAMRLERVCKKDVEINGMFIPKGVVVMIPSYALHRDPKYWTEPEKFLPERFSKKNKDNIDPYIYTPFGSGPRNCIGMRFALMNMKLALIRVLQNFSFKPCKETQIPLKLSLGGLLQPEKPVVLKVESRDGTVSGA

Consider `COc1ccc(-c2ccc(S(=O)(=O)N[C@@H]3CC=CCN(O)C3=O)s2)cc1`, for which the IC50 at Interstitial collagenase was greater than 1000 nM; against Collagenase 3, 3 nM; at Stromelysin-1, 493 nM; in series [3], 11 nM. Further, the Ratio IC50 in the series listed under Homo sapiens [1] and in the series filed under Homo sapiens [2] was 100 throughout.
`O=C1[C@H](NS(=O)(=O)c2ccc(Oc3ccc(Cl)cc3)cc2)CC=C(CN2CCOCC2)CN1O`: the IC50 at Interstitial collagenase was greater than 1000 nM; against Collagenase 3 it was 0.2 nM; against Stromelysin-1 it was 39 nM; in series [3] it was 0.46 nM; in series [4], 0.53 nM. Besides, the Ratio IC50 in the series filed under Homo sapiens [1] and in the series listed under Homo sapiens [2] was 100 each time.
As for `O=C1[C@H](N(CCN2CCCCC2)S(=O)(=O)c2ccc(Oc3ccc(Cl)cc3)cc2)CC=CCN1O`, in series [5], the Ratio IC50 was determined as 2.
For the molecule `O=C1[C@H](NS(=O)(=O)c2ccc(Oc3ccccc3)cc2)CC=CCN1O`, the results for the half-inhibitory concentration (IC50) in [3] and in [4] were 2 nM and 1 nM, respectively.
As to `COc1ccc(Oc2ccc(S(=O)(=O)N[C@@H]3CC=CCN(O)C3=O)cc2)cc1`, the IC50 in series [3] is 1 nM; in series [4], 2 nM.
Taken in the same sequence, the figures for `Cc1ccc(-c2ccc(S(=O)(=O)N(CCN3CCOCC3)[C@@H]3CC=CCN(O)C3=O)s2)cc1` were 11 nM and 7 nM.
With `Cc1ccc(-c2ccc(S(=O)(=O)N[C@@H]3CC=CCN(O)C3=O)s2)cc1`, the figures for the IC50 in [3] and in series [4] were 9 nM and 4 nM, respectively.
As to `O=C1[C@H](N(CCN2CCOCC2)S(=O)(=O)c2ccc(-c3ccc(Cl)cc3)s2)CC=CCN1O`, the IC50 in [3] was 17 nM; in series [4] it was 16 nM.
On the same counts, the results for `O=C(N[C@@H]1CC=CCN(O)C1=O)c1ccc(Oc2ccc(Cl)cc2)cc1` are 5090 nM and 2320 nM.
Taken in the same sequence, the figures for `O=C1[C@@H](NS(=O)(=O)c2ccc(Oc3ccc(Cl)cc3)cc2)CC=CCN1O` were 1120 nM and 1600 nM.
Taken in the same sequence, the figures for `O=C1NCC=CC[C@H]1NS(=O)(=O)c1ccc(Oc2ccc(Cl)cc2)cc1` were greater than 1000 nM and greater than 1000 nM.
With `O=C1[C@H](N(CCN2CCOCC2)S(=O)(=O)c2ccc(Oc3ccc(Cl)cc3)cc2)CC=CCN1O`, the IC50 was greater than 1000 nM against Interstitial collagenase; 0.7 nM on Collagenase 3; 90 nM at Stromelysin-1; 0.22 nM in series [3]; 0.39 nM in series [4]. Also, the peak concentration (Cmax) in series [6] turned out to be 4.4 µM; in [10], 38.3 µM. In addition, the figures for the half-life in series [7] and in series [8] were 2 h and 1 h, respectively. Also, the Ratio IC50 is 100 in the series listed under Homo sapiens [1], 2 in series [5] and 100 in the series filed under Homo sapiens [2]. The same molecule gave an area under the curve (AUC) with Rattus norvegicus of 1831 ng·h/mL. Also, the inhibition at 1 µM against CYP3A4 and at CYP2D6 was less than 50% in each case. Besides, the Activity entry with Salmonella typhimurium is “Non-toxic”; in series [11] it was less than 50%. Moreover, the Vd in [9] amounted to 1.4 L/kg.
For `Cc1ccc(C#Cc2ccc(S(=O)(=O)N(CCN3CCOCC3)[C@@H]3CC=CCN(O)C3=O)s2)cc1`, in [5], the Ratio IC50 worked out at 2. Further, the values for the 50% inhibitory concentration (IC50) in series [3] and in series [4] were 0.8 nM and 2.4 nM, respectively.
As to `O=C1[C@H](NS(=O)(=O)c2ccc(Oc3ccc(C(F)(F)F)cc3)cc2)CC=CCN1O`, the IC50 in [3] and in [4] was 2 nM in each case.
On to `O=C1[C@H](NS(=O)(=O)c2ccc(Oc3ccncc3)cc2)CC=CCN1O`, for which the IC50 is 12 nM in [3] and 3 nM in [4].
For the molecule `O=C1[C@H](NS(=O)(=O)c2ccc(Oc3ccc(Cl)cc3)cc2)CCCCN1O`, the IC50 in [3] came to 5.9 nM; in [4], 3.7 nM.
Regarding `O=C1[C@H](NS(=O)(=O)c2ccc(Oc3ccc(Cl)cc3)cc2)CC=CCN1O`, the IC50 is greater than 1000 nM against Interstitial collagenase; 0.4 nM against Collagenase 3; 86 nM against Stromelysin-1; 0.58 nM in series [3]; 0.57 nM in series [4]. The peak level in [6] (Cmax) was 4.6 µM. Besides, the half-life in series [7] is 14 h. Moreover, the Ratio IC50 in the series filed under Homo sapiens [1] and in the series filed under Homo sapiens [2] was 100 in each case. The molecule further displayed an AUC in [12] of 1230 ng·h/mL. In addition, the inhibition at 1 µM against CYP3A4 and against CYP2D6 was less than 50% throughout. Besides, the values for the Activity entry (in the series with Salmonella typhimurium; in [11]) were “Non-toxic” and less than 50%, respectively. Moreover, the Vd in series [9] came out at 3.3 L/kg. This molecule also came in with a clearance in series [13] of 7 mL/min/kg.
Take `CC1=CC[C@@H](NS(=O)(=O)c2ccc(Oc3ccc(Cl)cc3)cc2)C(=O)N(O)C1`: the values for the IC50 in series [3] and in [4] were 1.3 nM and 2 nM, respectively.
Taken in the same sequence, the figures for `O=C1[C@H](NS(=O)(=O)c2ccc(-c3ccc(Cl)cc3)cc2)CC=CCN1O` were 1510 nM and 85 nM.
For the molecule `O=C1[C@H](NS(=O)(=O)c2ccc(-c3ccc(Cl)cc3)s2)CC=CCN1O`, the IC50 was found to be 16 nM in [3] and 11 nM in series [4].
On to `CN1CCN(CCN([C@@H]2CC=CCN(O)C2=O)S(=O)(=O)c2ccc(Oc3ccc(Cl)cc3)cc2)CC1`, for which the Ratio IC50 in series [5] was found to be 2.
